Data published in patent publication US20100197789A1, “ANTI-OBESITY AGENT AND USE THEREOF” (National University Corporation Nagoya University, priority 2006, published 2010).

Key:
Format in all cases: in vivo, mouse
[1] = tested on: db/db mice; assay: Food intake amount and body weight, 5 week-continuous oral administration in drinking water, db/db mice; settings: for body weight increase / food intake amount: oral, 5 weeks
Protocol: (§1) 5 week-old male C57BL/KsJ-db/db mice (db/db mice: body weight 19 to 25 g, Japan SLC, Inc.) were purchased and individually fed in tip cages. For the db/db mice, normal pellet diet (CE-2) was administered under free water intake and free food intake. A body weight and a food intake amount over 24 hours were measured every day from the start of feeding. On day 3 after the start of feeding, blood was taken from an orbit after 6 hour-fasting and a blood glucose level and a blood insulin concentration were measured. The db/db mice were divided into three groups (10 mice per each group) so that a body weight, a 24 hour-food intake amount, a blood glucose level, and a blood insulin concentration were equal, and defined to be a control group, a low concentration baclofen treated group, and a high concentration baclofen treated group. After division into the groups, from day 5 after the start of feeding, (±)-baclofen was dissolved in drinking water and 5 week-continuous oral administration to the baclofen treated groups was started. (±)-baclofen was dissolved in drinking water at a concentration of 1.1 mg/dl in the low concentration treated group and at a concentration of 2.7 mg/dl in the high concentration treated group. A food intake amount and a body weight were measured over time during the period of 5 week-administration of (±)-baclofen, blood was taken after the end of the 5-week administration, and the db/db mice were sacrificed by cervical luxation. Brains, epididymal white adipose tissues, subcutaneous white adipose tissues and brown adipose tissues were surgically removed. The brains and brown adipose tissues were frozen in dry ice and liquid nitrogen immediately after the removal and then preserved at −80° C. The epididymal white adipose tissues and subcutaneous white adipose tissues were measured in weights, and then fixed in 4% formaldehyde and preserved at 4° C.
5 week-old male C57BL/KsJ-db/db mice (db/db mice: body weight 19 to 25 g, Japan SLC, Inc.) were purchased and individually fed in tip cages. For the db/db mice, normal pellet diet (CE-2) was administered under free water intake and free food intake. A body weight and a food intake amount over 24 hours were measured everyday from the start of feeding. On day 3 after the start of feeding, blood was taken from an orbit after 6 hour-fasting and a blood glucose level and a blood insulin concentration were measured. […] After division into the groups, from day 5 after the start of feeding, R-baclofen and S-baclofen were dissolved in drinking water and 5 week-continuous oral administration was started. […] A food intake amount and a body weight were measured over time, and a rectal temperature was measured 5 weeks after the start of the administration. Blood was taken after the 5-week administration of baclofen, and the db/db mice were sacrificed by cervical luxation.
5 week-old male C57BL/KsJ-db/db mice (db/db mice: body weight 19 to 25 g, Japan SLC, Inc.) were purchased and individually fed in tip cages. Normal pellet diet (CE-2) was administered to the db/db mice under free water intake and free food intake. A body weight and a food intake amount over 24 hours were measured every day from the start of feeding. On day 3 after the start of feeding, blood was taken from an orbit after 6 hour-fasting, and a blood glucose level and a blood insulin concentration were measured. The db/db mice were divided into five groups (10 mice per each group) so that a body weight, a 24 hour-food intake amount, a blood glucose level, and a blood insulin concentration were equal, and defined to be a control group and baclofen treated groups. (±)-baclofen was dissolved in drinking water at respective concentrations of 4×10^−6 M, 10×10^−6 M, 40×10^−6 M, and 100×10^−6 M, and continuously orally administered to the baclofen treated groups for 5 weeks. A food intake amount, a body weight and a water-drinking amount were measured over time during the period of 5 week-administration of (±)-baclofen. […]

[2] = tested on: NPY mRNA; assay: In situ hybridization, NPY mRNA in hypothalamic arcuate nucleus, db/db mice; settings: after 5 weeks, 1.1 and 2.7 mg/dl in drinking water, NIH image quantitation
Protocol: as §1, with “After division into the groups, from day 5 after the start of feeding, (±)-baclofen was dissolved in drinking water and 5 week-continuous oral administration to the baclofen treated groups was started. (±)-baclofen was dissolved in drinking water at a concentration of 1.1 mg/dl in the low concentration treated group and at a concentration of 2.7 mg/dl in the high concentration treated group.” left out, “Brains, epididymal white adipose tissues, subcutaneous white adipose tissues and brown adipose tissues were surgically removed. The brains and brown adipose tissues were frozen in dry ice and liquid nitrogen immediately after the removal and then preserved at −80° C.” left out, “C. […]” for “C.”

[3] = tested on: db/db mice; assay: Rectal temperature, oxygen consumption and motor activity, db/db mice
Protocol: 5 week-old male C57BL/KsJ-db/db mice (db/db mice: body weight 19 to 25 g, Japan SLC, Inc.) were purchased and individually fed in tip cages. For the db/db mice, normal pellet diet (CE-2) was administered under free water intake and free food intake. A body weight and a food intake amount over 24 hours were measured everyday from the start of feeding. On day 3 after the start of feeding, blood was taken from an orbit after 6 hour-fasting and a blood glucose level and a blood insulin concentration were measured. The db/db mice were divided into three groups (10 mice per each group) so that a body weight, a 24 hour-food intake amount, a blood glucose level, and a blood insulin concentration were equal, and defined to be a control group, an R-baclofen treated group, and an S-baclofen treated group. […] After division into the groups, from day 5 after the start of feeding, R-baclofen and S-baclofen were dissolved in drinking water and 5 week-continuous oral administration was started. Both of R-baclofen and S-baclofen were dissolved in drinking water at a concentration of 1.1 mg/dl used in the low concentration treated group in the experiment of baclofen racemic mixture administration. A food intake amount and a body weight were measured over time, and a rectal temperature was measured 5 weeks after the start of the administration. Blood was taken after the 5-week administration of baclofen, and the db/db mice were sacrificed by cervical luxation.
R-baclofen and S-baclofen were administered to db/db/mice and (±)-baclofen was administered to db/^+m mice respectively for 5 weeks, and rectal temperatures were then continuously measured for 3 days at 20 o'clock immediately before the dark period when feed intake was started in the mice. The method of measuring rectal temperatures was as follows. That is, the rectal temperatures were measured by using a digital thermistor (manufactured by NATSUME SEISAKUSHO CO., LTD.).
(±)-baclofen was orally administered to db/db mice and DIO mice for 5 weeks and rectal temperatures were measured 5 weeks after the start of the administration, and oxygen consumptions and motor activity were measured by using a small animal metabolism measuring system (model MK-5000: Muromachi Kikai Co., Ltd.).

[4] = (±)-baclofen 1.1 mg/dl (low) and 2.7 mg/dl (high) in drinking water, vs control
[5] = (±)-baclofen 1.1 and 2.7 mg/dl in drinking water, continued until end of experiment
[6] = (±)-baclofen 4×10^−6 M in drinking water (roughly 0.2 mg/kg/day)
[7] = (±)-baclofen 10×10^−6 M in drinking water (roughly 0.5 mg/kg/day)
[8] = (±)-baclofen 40×10^−6 M in drinking water (roughly 2 mg/kg/day)
[9] = (±)-baclofen 100×10^−6 M in drinking water (roughly 5 mg/kg/day)

SMILES: NCC(CC(=O)O)c1ccc(Cl)cc1 (racemic) [(±)-baclofen, (RS)-4-amino-3-(4-chlorophenyl)butanoic acid]
- body weight increase [1, 4]: significant body weight increase suppression
- food intake amount [1, 4]: significantly suppressed
- time after start of administration from which body weight increase suppression was significant [1, 5]: 1 week
- time after start of administration from which food intake suppression was significant [1, 5]: 1 week
- time after start of administration from which body weight increase suppression was significant [1, 6]: 4 weeks
- time after start of administration from which food intake suppression was significant [1, 6]: 4 weeks
- body weight increase [1, 6]: Significant suppression
- food intake amount [1, 6]: Significant suppression
- time after start of administration from which body weight increase suppression was significant [1, 7]: 2 weeks
- time after start of administration from which food intake suppression was significant [1, 7]: 2 weeks
- body weight increase [1, 7]: Significant suppression
- food intake amount [1, 7]: Significant suppression
- time after start of administration from which body weight increase suppression was significant [1, 8]: 1 week
- time after start of administration from which food intake suppression was significant [1, 8]: 1 week
- body weight increase [1, 8]: significantly suppressed
- food intake amount [1, 8]: significantly suppressed
- time after start of administration from which body weight increase suppression was significant [1, 9]: 1 week
- time after start of administration from which food intake suppression was significant [1, 9]: 1 week
- body weight increase [1, 9]: significantly suppressed
- food intake amount [1, 9]: significantly suppressed
- expression of NPY mRNA in the hypothalamic arcuate nucleus [2]: significantly suppressed
- oxygen consumption ([3]; (±)-baclofen oral 5 weeks): significantly increased
- body temperature (rectal) ([3]; (±)-baclofen oral, 5 weeks after start of administration): significantly raised
